Read-outs that look alike come from different tables or passages of the source.
Tests used:
[1] = Protection of linoleic acid following a UV stress (Fenton conditions, MDA-TBA assay); parameters: % Protection Linoleic acid under UV/Fenton: concentration or dose not given beside the values; conditions: for % Protection Linoleic acid under UV/Fenton: UV + H2O2 + iron II
Description: D) Test of Protection of Linoleic Acid Following a UV Stress. Target: Protection of Linoleic Acid Under Fenton Conditions, UV Irradiation Linoleic acid belongs to the family of polyunsaturated fatty acids (PUFA) (AGPI). Sensitive to oxidation, linoleic acid is a favoured target for oxygenated free radicals (OFR) in biological media. When biological membranes are exposed to an oxidative stress, the components the most affected are the phospholipids constituted of PUFA and cholesterol. Their degradation leads to lipidic peroxidation and generally to destructuring. Lipidic peroxidation is a self-catalysing process which generally involves OFR. Lipidic peroxidation is in part responsible for skin ageing. The method employed to evaluate lipid peroxidation is based on the coupling of thiobarbituric acid (TBA) and secondary degradation products leading to coloured compounds detectable by spectrofluorometry. The essential secondary compound of final degradation is malondialdehyde, MDA. MDA is a carcinogenic and mutagenic aldehyde, it acts on proteins and DNA. The sample to be tested is placed in contact with linoleic acid in a weight/weight ratio. The sample undergoes an MED (Minimal Erythemal Dose) irradiation under Fenton conditions, namely in the presence of H202 and iron II in a solar simulator. Following irradiation, the reaction mixture is taken up in methanol and derivatised at 90° C. with TBA. Chromogene, the MDA-TBA complex, representative of the equimolar production of MDA is assayed by fluorimetry (excitation at 525 nm, emission at 549 nm). The results are expressed in fluorescence units, as a function of a MDA-TBA control range then expressed as concentration of the MDA-TBA complex. Then, the percentage of the starting MDA/linoleic acid (LA) ratio is determined. Then the percentage of protection of linoleic acid is determined. The product assay is expressed as weight/weight ratio, in other words in weight percentage with respect to the total quantity of linoleic acid. The maximal MDA level is determined by the condition UV+H202+iron II (F). The percentage of protection of linoleic acid represents: the % ratio of MDA under maximal stress conditions untreated over the % of MDA under stress conditions treated by the product.

mushroom tyrosinase = target: T1, mushroom tyrosinase (Agaricus bisporus, UniProt C7FF04); experiment: Tyrosinase inhibition test (in vitro acellular depigmenting activity); assay type: biochemical; conditions: for Tyrosinase depigmenting activity result: class symbol, assay from 250 to 150 μM, overall tyrosinase activity (MPMOg), L-tyrosine substrate
T1 construct: purchased Sigma T-3824
T1 sequence (C7FF04 1-392 limits assumed): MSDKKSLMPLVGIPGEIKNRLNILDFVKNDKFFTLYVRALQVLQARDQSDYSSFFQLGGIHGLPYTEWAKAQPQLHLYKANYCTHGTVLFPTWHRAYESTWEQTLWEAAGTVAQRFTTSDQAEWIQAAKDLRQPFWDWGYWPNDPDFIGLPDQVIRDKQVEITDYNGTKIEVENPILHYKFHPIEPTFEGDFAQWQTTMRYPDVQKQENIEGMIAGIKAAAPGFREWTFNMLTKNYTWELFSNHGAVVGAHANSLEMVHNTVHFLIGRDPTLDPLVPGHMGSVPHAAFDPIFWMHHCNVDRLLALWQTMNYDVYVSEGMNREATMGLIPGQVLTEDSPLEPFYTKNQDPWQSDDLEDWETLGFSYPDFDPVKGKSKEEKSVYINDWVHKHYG
Description: A) Determination of the Depigmenting Activity in an in vitro Acellular Test: Tyrosinase Inhibition Test)
This test is used to evaluate the depigmenting activity of the molecules tested. Tyrosinase is a limiting enzyme in melanogenesis.
It belongs to the family of oxydoreductases. It has in particular the function: monophenol monooxygenase (MPMO) and polyphenol oxidase (PPO).
It is synthesised at the level of the melanocytes. It is activated during its migration towards melanosome […]. It transforms tyrosine into DOPA then dopaquinone, which leads in fine to a polymerisation, i.e. a production of pigments (see diagram below).
The substrate: L-tyrosine, is transformed into L-DOPA by the monophenol mono oxygenase function which is transformed by the polyphenol oxidase function from tyrosinase into dopaquinone. The latter is going to self-oxidise into dopachrome which is measured by spectrophotometry at 490 nm.
More precisely, it is the overall tyrosinase activity (MPMOg) which is measured since it is the dopachrome in fine that is assayed. Thus the products tested on MPMOg (=measurement of the activity on PPO and MPMO) can cumulate the inhibition of the 2 functions, • inhibiting uniquely the MPMO function stricto sensus (transformation of tyrosine into DOPA) as a complement to the PPO test, • could inhibit PPO uniquely. General Experimental Conditions:

[2] = Antioxidant capacity by chemiluminescence (Photochem Analytik Jena); conditions: for μg of sample for 1 μg of Trolox: Trolox equivalent, lower = stronger antioxidant
Procedure: This test is used to determine the antioxidant capacity of the molecules. It is a method that generates free radicals by a photochemical signal. The intensity of the oxidation is 1000 times greater than that obtained under normal conditions.
The detection is carried out by chemiluminescence. It enables the evaluation of hydrosoluble and liposoluble anti-oxidant molecules or extracts.
The results are expressed respectively in equivalent quantity of vitamin C or Trolox (6-hydroxy-2,5,7,8-tetramethylchroman-2-carboxylic acid). The sensitivity is of the order of a nanomole.
The antioxidant activity studied in this test represents the capacity to trap specifically superoxide anions by chemiluminescence.
The quantified results are expressed in Trolox equivalent (standard), i.e. in “μg of product for 1 μg of Trolox”. This signifies that a quantity×of sample is needed to obtain an activity equivalent to the activity detected for 1 μg of standard. It is an anti-oxidant power relative to a reference, which makes it possible to disregard the concentration tested.
The superoxide radical: 02^0− is generated by a photochemical reaction: L+hv (UV)+O2→L*O2→L^0++O2^0−
A part of the superoxide anions is quenched by the anti-oxidants. The remaining free radicals are quantified by chemiluminescence. L^0++O2^0−→N2+AP*^2−→AP^2−+hv (luminescence)

B16-F10 cells = experiment: Melanin assay test in B16-F10 cells; assay type: cell-based, murine; conditions: Mus musculus, read-out: B16 activity results -% at X μM
Procedure: B) Melanin Assay Test in B16-F10 Cells:
This involves a test of measuring the synthesis of melanin by colorimetric assay on a murine melanoma cell line: the B16-F10 line. This test makes it possible to evaluate the depigmenting power of active ingredients.
The B16-F10 cells are cultured in 96-well plates in DMEM medium supplemented with FCS (foetal calf serum), and incubated for 24 hours at 37° C., 5% CO2. The cells are then stimulated with 0.1 μM α-MSH (to stimulate the synthesis of melanin, the stimulation observed is around 150%) and treated for 72 hours with the active ingredients to be tested. Each concentration of active ingredient is tested at least in triplicate. The total melanin followed by the intracellular melanin dissolved in the lysis buffer are then assayed by absorbance reading at 405 nm. The total proteins are assayed in the lysate and the results are expressed in mg melanin/mg proteins. The percentage of activity is calculated as follows: […]
A negative value indicates an inhibition, whereas a positive value indicates an induction of the synthesis of melanin.
• B16-F10 cell line between P10 and P20 (murine melanocytes) (ATCC, CRL-6475)
Reagents: • DMEM without phenol red (GibcoBRL, 31053-028), 200 mM Glutamax-I Supplement (GibcoBRL, 35050-038), D-PBS (GibcoBRL, 14190-094), Foetal calf serum (Invitrogen, 10270-098), Trypsine-EDTA (GibcoBRL, 25300-054), NaOH (Sigma, S8045-500G), DMSO (Sigma, 471267-1L), Nle, Phe—Melanocyte Stimulating Hormone (Sigma, M-8764), Melanin (Sigma, M-0418), BCA-Copper (Sigma, B9643 and C2284), BSA (Sigma, P0914) C) Test for the Study of the Antioxidant Capacity by Chemiluminescence (Photochem Analytik Jena) Principle: […]

[3] = reference products of the interpretation scale
[4] = monophenol monooxygenase (MPMO) function, reference molecules for the test, read-out: IC 50 (MPMO)

Row | SMILES | Tyrosinase depigmenting activity result (mushroom tyrosinase) | μg of sample for 1 μg of Trolox [2] | % Protection Linoleic acid under UV/Fenton [1] [%] | other results
1 | O=c1c(O)c(-c2ccc(O)c(O)c2)oc2cc(O)cc(O)c12 [quercetin, reference compound] | – | – | – | protection of linoleic acid ([1]; positive control at 0.1% (weight/weight of linoleic acid)): around 50%; protection of linoleic acid ([1]; positive control at 1% (weight/weight of linoleic acid)): almost total protection
2 | CCCCC/C=C\C/C=C\CCCCCCCC(=O)Oc1cc(O)ccc1Sc1ccc(O)cc1O [Example 21, (9Z, 12Z)-2-(2,4-dihydroxyphenylthio)-5-hydroxyphenyl octadeca-9,12-dienoate] | + + + | 5.9 μg of sample for 1 μg of Trolox | – | IC50 (mushroom tyrosinase): 11 µM; inhibition at 32 µM (B16-F10 cells; B16-F10, 32 μM, α-MSH stimulated, 72 hours, negative value = inhibition): 50%
3 | COc1ccc(/C=C/C(=O)Oc2cc(O)ccc2Sc2ccc(O)cc2O)cc1OC [Example 23, (E)-2-(2,4-dihydroxyphenylthio)-5-hydroxyphenyl 3-(3,4-dimethoxyphenyl)acrylate] | + + + | 2.8 μg of sample for 1 μg of Trolox | 96 | –
4 | CCCCCCCCCCOc1cc(O)ccc1[S+]([O-])c1ccc(O)cc1O (stereo not shown) [Example 28, 4-(2-(decyloxy)-4-hydroxyphenylsulphinyl)benzene-1,3-diol] | – | 28 μg of sample for 1 μg of Trolox | 94 | –
5 | CCCCCCCCCCOc1cc(O)ccc1S(=O)(=O)c1ccc(O)cc1O [Example 30, 4-(2-(decyloxy)-4-hydroxyphenylsulphonyl)benzene-1,3-diol] | – | 147 μg of sample for 1 μg of Trolox | 34 | –
6 | CCCCOc1ccc(Sc2ccc(O)cc2O)c(O)c1 [Example 6, 4-(4-butoxy-2-hydroxyphenylthio)benzene-1,3-diol] | + + + | 14.9 μg of sample for 1 μg of Trolox | – | inhibition at 20 µM (B16-F10 cells; B16-F10, 72 h): 30%
7 | CCCCC/C=C\C/C=C\CCCCCCCC(=O)Oc1cc(O)ccc1[S+]([O-])c1ccc(O)cc1O (stereo not shown) [Example 27, (9Z,12Z)-2-(2,4-dihydroxyphenylsulphinyl)-5-hydroxyphenyl octadeca-9,12-dienoate] | – | 40 μg of sample for 1 μg of Trolox | 78 | –
8 | CCCCCCCC(=O)Oc1ccc(Sc2ccc(O)cc2O)c(O)c1 [Example 16, 4-(2,4-dihydroxyphenylthio)-3-hydroxyphenyl octanoate] | + + + | 33.2 μg of sample for 1 μg of Trolox | 91 | –
9 | O=S(=O)(c1ccc(O)cc1O)c1ccc(O)cc1O [Example 29, 4,4′-sulphonyldibenzene-1,3-diol] | – | 301 μg of sample for 1 μg of Trolox | 25 | μg of sample for 1 μg of Trolox ([2]; listed as resorcinol sulphone): 301 μg of sample for 1 μg of Trolo
10 | CCCCCCCCCCCC(=O)Oc1cc(O)ccc1Sc1ccc(O)cc1O [Example 14, 2-(2,4-dihydroxyphenylthio)-5-hydroxyphenyl dodecanoate] | + + + | 4.8 μg of sample for 1 μg of Trolox | – | inhibition at 48 µM (B16-F10 cells; B16-F10, 48 μM, α-MSH stimulated, 72 hours, negative value = inhibition): 50%
11 | COc1ccc(/C=C/C(=O)Oc2cc(O)ccc2Sc2ccc(O)cc2O)cc1 [Example 22, (E)-2-(2,4-dihydroxyphenylthio)-5-hydroxyphenyl 3-(4-metoxyphenyl)acrylate] | + + + | 2.5 μg of sample for 1 μg of Trolox | 97 | –
12 | N[C@@H](CS)C(=O)O [Cysteine, reference compound] | – | – | – | Activity (antioxidant, interpretation scale) [2, 3]: Medium (50.1 to 1000)
13 | Oc1ccc(O)cc1 [Hydroquinone, reference compound] | – | – | – | IC50 (mushroom tyrosinase; [4]): 3 to 4 µM
14 | CCCCCCCCCCCC(=O)Oc1cc(O)ccc1[S+]([O-])c1ccc(O)cc1O (stereo not shown) [Example 26, 2-(2,4-dihydroxyphenylsulphinyl)-5-hydroxyphenyl dodecanoate] | – | 69 μg of sample for 1 μg of Trolox | 80 | –
15 | O=C(O)CCCC[C@@H]1CCSS1 (racemic) [Lipoic acid, reference compound] | – | – | – | Activity (antioxidant, interpretation scale) [2, 3]: None; μg of sample for 1 μg of Trolox (scale for interpreting the results, reference products) [2, 3]: NEGATIVE
16 | OC[C@H]1O[C@@H](Oc2ccc(O)cc2)[C@H](O)[C@@H](O)[C@@H]1O [Arbutin, reference compound] | – | – | – | inhibition at 88 µM (mushroom tyrosinase; at 88 μM, MPMO function): 57%
17 | Cc1cc(C(C)(C)C)c(O)c(C(C)(C)C)c1 [BHT, reference compound] | – | – | – | Activity (antioxidant, interpretation scale) [2, 3]: Good (3.01 to 50)
18 | N[C@@H](CCC(=O)N[C@@H](CS)C(=O)NCC(=O)O)C(=O)O [Reduced glutathion, reference compound] | – | – | – | % inhibition (PPO) (mushroom tyrosinase; at 25 μM, PPO function): 55%; IC50 (mushroom tyrosinase; [4]): 1 to 2 µM

From US8859819B2, “Sulphurated derivatives of resorcinol, preparation of same and cosmetic uses thereof” (Pierre Fabre Dermo-Cosmetique, priority 2009, dated 2014)
